# Reference: patent EP4603105A1, “PHARMACEUTICAL COMPOSITION CONTAINING CYCLIC COMPOUND HAVING SELECTIVE KRAS INHIBITORY EFFECT AGAINST HRAS AND NRAS” (CHUGAI SEIYAKU KABUSHIKI KAISHA, priority 2022, dated 2024)
# Like-named read-outs stand apart in the source and are kept apart here. *1 amine or outer side, *2 acyl side, *3 side chain or, on linkers, in order; H or OH if unused. Where a SMILES comes first, the peptide text is derived from it. Bridges are numbered along the chain shown (N, C = ends). [ ]: non-standard residue; d: D form. The star is where a group is joined. hPhe(3,5-F2-4-CF3) = N[C@@H](CCc1cc(F)c(C(F)(F)F)c(F)c1)C(=O)O; hPhe(3-Cl-4-CF3) = N[C@@H](CCc1ccc(C(F)(F)F)c(Cl)c1)C(=O)O; X29 = C#CCN([C@@H](Cc1ccc(C(F)(F)F)cc1)C(=O)[*:2])[*:1]; NPrPhe(4-CF3) = CCCN[C@@H](Cc1ccc(C(F)(F)F)cc1)C(=O)O; X8 = CCCN([C@@H](COCCC(C)C)C(=O)[*:2])[*:1]; X21 = CCCN([C@H](C(=O)[*:2])C1CCCC1)[*:1]; NMeGly(cPent) = CN[C@H](C(=O)O)C1CCCC1; Pro(4,4-F2) = O=C(O)[C@@H]1CC(F)(F)CN1; NMeD = CN[C@@H](CC(=O)O)C(=O)O; NMeL = CN[C@@H](CC(C)C)C(=O)O; αMeS = C[C@](N)(CO)C(=O)O; Morpholide = C1CN(*)CCO1; NMeA = CN[C@@H](C)C(=O)O; Ac5c = NC1(C(=O)O)CCCC1; Aze = O=C(O)[C@@H]1CCN1; Abu = CC[C@H](N)C(=O)O; Ac4c = NC1(C(=O)O)CCC1; Sar = CNCC(=O)O; tBu = CC(C)(C)*
# How the values were obtained:
# [1] = molecular target: GDP-bound NRAS wild-type protein (Homo sapiens, UniProt P01111); test: Binding to NRAS by surface plasmon resonance (SPR), KD and KD ratio to KRAS
# Outline: (§1)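 SPR, 30°C: Avi-biotin RAS·GDP captured via Biotin CAPture (~100–300 RU); running buffer HBS pH 7.4, 1 mM DTT, 10 mM MgCl2, 0.01% Tween 20, 10 µM GDP, 4% DMSO. Single-cycle kinetics, 100 µL/min, 75 s injections; 1:1 model → KD.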
# HRAS wild-type protein = HRAS wild-type protein (Homo sapiens, UniProt P01112); test: Binding to HRAS by surface plasmon resonance (SPR), KD and KD ratio to KRAS
# Outline: as §1
# [2] = tested on: human lung cancer strain NCI-H441; assay type: cell-based
# Outline: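 Proliferation was scored by […] measured after the reagent was added to cultures kept at 37°C in 5% carbon dioxide.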
# [3] = ratio of KD for GDP-bound NRAS wild-type protein to KD for KRAS
# [4] = ratio of KD for HRAS wild-type protein to KD for KRAS
# [5] = ratio of KD value for GDP-bound NRAS wild-type protein to KD value for KRAS (SPR)
# [6] = ratio of KD value for HRAS wild-type protein to KD value for KRAS (SPR)
# Chain of GDP-bound NRAS wild-type protein (P01111 whole entry): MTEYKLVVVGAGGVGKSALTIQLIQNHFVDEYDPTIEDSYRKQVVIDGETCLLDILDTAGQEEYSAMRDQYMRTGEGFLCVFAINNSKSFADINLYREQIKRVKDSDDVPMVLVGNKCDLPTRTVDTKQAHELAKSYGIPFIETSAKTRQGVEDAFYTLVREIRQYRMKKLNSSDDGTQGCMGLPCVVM
# Chain of HRAS wild-type protein (P01112 whole entry): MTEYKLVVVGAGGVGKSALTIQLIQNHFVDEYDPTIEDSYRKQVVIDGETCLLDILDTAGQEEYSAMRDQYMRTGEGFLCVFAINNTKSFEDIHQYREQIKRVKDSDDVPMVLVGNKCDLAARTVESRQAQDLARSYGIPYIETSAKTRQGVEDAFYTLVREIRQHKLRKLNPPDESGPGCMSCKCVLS
SMILES,"NRAS /KRAS [1, 3]",HRAS /KRAS (HRAS wild-type protein; [4]),IC50 [2],further results
"CCCN1C(=O)CN(C)C(=O)CN(C)C(=O)[C@H]([C@@H](C)CC)NC(=O)[C@H](CC(C)C)N(C)C(=O)C[C@@H](C(=O)N2CCOCC2)NC(=O)[C@H](C2CCCC2)N(C)C(=O)C2(CCC2)NC(=O)[C@@H]2CC(F)(F)CN2C(=O)[C@H](CCc2ccc(C(F)(F)F)c(Cl)c2)NC(=O)CN(C)C(=O)[C@@H]1Cc1ccc(C(F)(F)F)cc1 [PP0322] ([NMeL]I[Sar][Sar][NPrPhe(4-CF3)][Sar][hPhe(3-Cl-4-CF3)][Pro(4,4-F2)][Ac4c][NMeGly(cPent)]D-Morpholide; lactam N-11)",B (a compound having 3 or more and less than 10 is denoted as B),C (A compound having a KD ratio of 0.1 or more and less than 3 is denoted as C),0.0742 µM,–
CCCN1C(=O)CN(C)C(=O)CN(C)C(=O)[C@H](CC)NC(=O)[C@H](CC(C)C)N(C)C(=O)C[C@@H](C(=O)N2CCOCC2)N(C)C(=O)[C@H](C2CCCC2)N(C)C(=O)C2(CCCC2)NC(=O)[C@@H]2CCCN2C(=O)[C@H](CCc2ccc(C(F)(F)F)c(Cl)c2)NC(=O)CN(C)C(=O)[C@@H]1Cc1ccc(C(F)(F)F)cc1 [PP0248] ([NMeL][Abu][Sar][Sar][NPrPhe(4-CF3)][Sar][hPhe(3-Cl-4-CF3)]P[Ac5c][NMeGly(cPent)][NMeD]-Morpholide; lactam N-11),B (a compound having 3 or more and less than 10 is denoted as B),B (a compound having 3 or more and less than 10 is denoted as B),0.084 µM,–
CC[C@H](C)[C@@H]1NC(=O)[C@H](CC2CCC2)N(C)C(=O)C[C@@H](C(=O)N(C)C)N(C)C(=O)[C@H](C2CCCC2)N(C)C(=O)C2(CCC2)N(C)C(=O)[C@@H]2CCCN2C(=O)[C@H](CCc2cc(F)c(C(F)(F)F)c(F)c2)NC(=O)CN(C)C(=O)[C@H](Cc2ccc(C)cc2)N2CC/C=C\C[C@@H](C2=O)N(C)C(=O)CN(C)C1=O [PP1802],–,–,0.0058 µM,"NRAS /KRAS [1, 5]: A (a compound having 10 or more and less than 20 is denoted as A); HRAS /KRAS (HRAS wild-type protein; [6]): B (a compound having 3 or more and less than 10 is denoted as B)"
CCO[C@@H]1C[C@H]2C(=O)NC3(CCC3)C(=O)N(C)[C@@H](C3CCCC3)C(=O)N(C)[C@H](C(=O)N(C)CCOC)CC(=O)N(C)[C@@H](CC)C(=O)N[C@@H]([C@@H](C)CC)C(=O)N(C)CC(=O)N(C)[C@H]3C/C=C\CCN(C3=O)[C@@H](Cc3ccc(C(F)(F)F)cc3)C(=O)N(C)CC(=O)N[C@@H](CCc3ccc4sccc4c3)C(=O)N2C1 [PP1322],–,–,0.0562 µM,NRAS /KRAS ([1]; ratio of KD with respect to GDP-bound NRAS wild-type protein to KD with respect to KRAS): A (a compound having 10 or more and less than 20 is denoted as A); HRAS /KRAS (HRAS wild-type protein; ratio of KD with respect to HRAS wild-type protein to KD with respect to KRAS): A (a compound having 10 or more and less than 20 is denoted as A)
CC[C@H](C)[C@@H]1NC(=O)[C@H](CC2CC2)N(C)C(=O)C[C@@H](C(=O)N(C)C)N(C)C(=O)[C@H](C2CCCC2)N(C)C(=O)C2(CCCC2)NC(=O)[C@@H]2CC(F)(F)CN2C(=O)[C@H](CCc2cc(F)c(C(F)(F)F)c(F)c2)NC(=O)CN(C)C(=O)[C@H](Cc2ccc(C(F)(F)F)cc2)N2CC/C=C\C[C@@H](C2=O)N(C)C(=O)CN(C)C1=O [PP1513],–,–,0.0083 µM,"NRAS /KRAS [1, 5]: A (a compound having 10 or more and less than 20 is denoted as A); HRAS /KRAS (HRAS wild-type protein; [6]): A (a compound having 10 or more and less than 20 is denoted as A)"
CCCN1C(=O)CN(C)C(=O)CN(C)C(=O)[C@H]([C@@H](C)CC)NC(=O)[C@H](CC(C)C)N(C)C(=O)C[C@@H](C(=O)N2CCOCC2)N(C)C(=O)[C@H](C2CCCC2)N(C)C(=O)C2(CCC2)NC(=O)[C@@H]2CCCN2C(=O)[C@H](CCc2ccc(C(F)(F)F)c(Cl)c2)NC(=O)CN(C)C(=O)[C@@H]1COCCC(C)C [PP1817] ([NMeL]I[Sar][Sar][X8][Sar][hPhe(3-Cl-4-CF3)]P[Ac4c][NMeGly(cPent)][NMeD]-Morpholide; lactam N-11),–,–,0.0204 µM,"NRAS /KRAS [1, 5]: C (A compound having a KD ratio of 0.1 or more and less than 3 is denoted as C); HRAS /KRAS (HRAS wild-type protein; [6]): C (A compound having a KD ratio of 0.1 or more and less than 3 is denoted as C)"
CCO[C@@H]1C[C@H]2C(=O)NC3(CCC3)C(=O)N(C)[C@@H](C3CCCC3)C(=O)N(C)[C@H](C(=O)N3CCOCC3)CC(=O)N(C)[C@@H](COC)C(=O)N[C@@H]([C@@H](C)CC)C(=O)N(C)CC(=O)N(C)[C@H]3CCCCCN(C3=O)[C@@H](Cc3ccc(C(F)(F)F)cc3)C(=O)N(C)CC(=O)N[C@@H](CCc3ccc(C)cc3)C(=O)N2C1 [PP0850],B (a compound having 3 or more and less than 10 is denoted as B),B (a compound having 3 or more and less than 10 is denoted as B),3.09 µM,–
CCC[C@H]1C(=O)N[C@@H](C2CCCCC2)C(=O)N(C)CC(=O)N(C)[C@H]2C/C=C\CCN(C2=O)[C@@H](Cc2ccc(C(F)(F)F)cc2)C(=O)N(C)CC(=O)N[C@@H](CCc2ccc(C(F)(F)F)c(Cl)c2)C(=O)N2C[C@H](OCC)C[C@H]2C(=O)NC2(CC(C)(C)C2)C(=O)N(C)[C@@H](CC(C)(C)C)C(=O)N(C)[C@H](C(=O)N(C)C)CC(=O)N1C [PP3014],AA (a compound having 20 or more is denoted as AA),A (a compound having 10 or more and less than 20 is denoted as A),0.0206 µM,–
CCO[C@@H]1C[C@H]2C(=O)NC3(CCC3)C(=O)N(C)[C@@H](C3CCCC3)C(=O)N(C)[C@H](C(=O)N3CCOCC3)CC(=O)N(C)[C@@H](Cc3cccc(Cl)c3)C(=O)N[C@@H]([C@@H](C)CC)C(=O)N(C)CC(=O)N(C)[C@H]3CCCCCN(C3=O)[C@@H](Cc3ccc(C(F)(F)F)cc3)C(=O)N(C)CC(=O)N[C@@H](CCc3cc(F)c(C(F)(F)F)c(F)c3)C(=O)N2C1 [PP0857],B (a compound having 3 or more and less than 10 is denoted as B),B (a compound having 3 or more and less than 10 is denoted as B),0.111 µM,–
C#CCN1C(=O)CN(C)C(=O)CN(C)C(=O)[C@H]([C@@H](C)CC)NC(=O)[C@H](CC(C)C)N(C)C(=O)C[C@@H](C(=O)N2CCOCC2)N(C)C(=O)[C@H](C2CCCC2)N(C)C(=O)C2(CCCC2)NC(=O)[C@@H]2CCCN2C(=O)[C@H](CCc2ccc(C(F)(F)F)c(Cl)c2)NC(=O)CN(C)C(=O)[C@@H]1Cc1ccc(C(F)(F)F)cc1 [PP0130] ([NMeL]I[Sar][Sar][X29][Sar][hPhe(3-Cl-4-CF3)]P[Ac5c][NMeGly(cPent)][NMeD]-Morpholide; lactam N-11),C (A compound having a KD ratio of 0.1 or more and less than 3 is denoted as C),C (A compound having a KD ratio of 0.1 or more and less than 3 is denoted as C),0.0088 µM,–
"CCCN1C(=O)[C@@H]2CCN2C(=O)CN(C)C(=O)[C@H]([C@@H](C)CC)NC(=O)[C@H](CC(C)C)N(C)C(=O)C[C@@H](C(=O)N2CCOCC2)N(C)C(=O)[C@H](C2CCCC2)N(C)C(=O)[C@](C)(COC(C)(C)C)NC(=O)[C@@H]2CCCN2C(=O)[C@H](CCc2cc(F)c(C(F)(F)F)c(F)c2)NC(=O)CN(C)C(=O)[C@@H]1Cc1ccc(C(F)(F)F)cc1 [PP0800] ([NMeL]I[Sar][Aze][NPrPhe(4-CF3)][Sar][hPhe(3,5-F2-4-CF3)]P[αMeS](tBu)[NMeGly(cPent)][NMeD]-Morpholide; lactam N-11)",C (A compound having a KD ratio of 0.1 or more and less than 3 is denoted as C),B (a compound having 3 or more and less than 10 is denoted as B),0.186 µM,–
CCCN(C)C(=O)[C@@H]1CC(=O)N(C)[C@@H](CC(F)F)C(=O)N[C@@H]([C@@H](C)CC)C(=O)N(C)CC(=O)N(C)[C@H]2C/C=C\CCN(C2=O)[C@@H](Cc2ccc(C(F)(F)F)cc2)C(=O)N(C)CC(=O)N[C@@H](CCc2cc(F)c(C(F)(F)F)c(F)c2)C(=O)N2C[C@@H](C)C[C@H]2C(=O)NC2(CCC2)C(=O)N(C)[C@@H](C2CCCC2)C(=O)N1C [PP2000],–,–,0.0177 µM,NRAS /KRAS ([1]; ratio of the KD value with respect to GDP-bound NRAS wild-type protein to the KD value with respect to KRAS): A (a compound having 10 or more and less than 20 is denoted as A); HRAS /KRAS (HRAS wild-type protein; ratio of the KD value with respect to HRAS wild-type protein to the KD value with respect to KRAS): B (a compound having 3 or more and less than 10 is denoted as B)
CCCN1C(=O)[C@@H]2CCN2C(=O)[C@H](C)N(C)C(=O)[C@H]([C@@H](C)CC)NC(=O)[C@H](CC(C)C)N(C)C(=O)C[C@@H](C(=O)N2CCOCC2)N(C)C(=O)[C@H](C2CCCC2)N(C)C(=O)C2(CCCC2)NC(=O)[C@@H]2CCCN2C(=O)[C@H](CCc2ccc(C(F)(F)F)c(Cl)c2)NC(=O)CN(C)C(=O)[C@@H]1C1CCCC1 [PP0054] ([NMeL]I[NMeA][Aze][X21][Sar][hPhe(3-Cl-4-CF3)]P[Ac5c][NMeGly(cPent)][NMeD]-Morpholide; lactam N-11),C (A compound having a KD ratio of 0.1 or more and less than 3 is denoted as C),C (A compound having a KD ratio of 0.1 or more and less than 3 is denoted as C),–,"IC50 ([2]; NCI-H441 cells, 4 days, CellTiter-Glo, read-out: NCl-H441 IC50): 0.082 µM"
